Measurements as given in publication PMC9322761, “Design, Synthesis and Biological Characterization of Histone Deacetylase 8 (HDAC8) Proteolysis Targeting Chimeras (PROTACs) with Anti-Neuroblastoma Activity” (International Journal of Molecular Sciences, 2022).
Read-outs that look alike come from different tables or passages of the source.

What was measured:
HDAC8 [1] = target: T1, HDAC8 (Homo sapiens, UniProt Q9BY41); assay: In vitro HDAC8 activity assay (Fluor de Lys-HDAC8); format: biochemical; design: made in house; conditions: for SI (HDAC6/HDAC8): selectivity index, HDAC6 over HDAC8
T1 sequence (Q9BY41 1-377): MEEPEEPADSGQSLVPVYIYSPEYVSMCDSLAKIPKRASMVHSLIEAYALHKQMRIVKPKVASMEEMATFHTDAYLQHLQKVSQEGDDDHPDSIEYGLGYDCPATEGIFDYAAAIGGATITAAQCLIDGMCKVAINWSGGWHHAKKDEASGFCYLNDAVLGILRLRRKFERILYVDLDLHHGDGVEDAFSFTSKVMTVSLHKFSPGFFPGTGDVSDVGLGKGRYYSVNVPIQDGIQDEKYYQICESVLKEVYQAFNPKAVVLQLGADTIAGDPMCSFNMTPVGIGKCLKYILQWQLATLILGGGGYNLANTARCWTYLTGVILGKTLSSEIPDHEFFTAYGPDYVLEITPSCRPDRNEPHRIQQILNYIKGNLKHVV
Protocol: Recombinant hHDAC8 was produced by Romier et al. in Strasbourg. The HDAC8 activity assays were performed according to the commercial HDAC8 Fluorometric Drug Discovery Kit (Fluor de Lys(R)-HDAC8, BML-KI178) corresponding to the instructions of the manufacturer. As substrate a tetrapeptide connected to aminomethylcoumarin (AMC) H2N-Arg- His-Lys(Ac)-Lys(Ac)-AMC was synthesized as previously described. The enzyme was incubated for 90 min at 37 °C, with a substrate concentration of 50 µM and increasing concentrations of inhibitors. The stop-solution-containing inhibitor was added to stop the hHDAC8 activity, and Trypsin was added to release the AMC. The solution was incubated for 20 min at 37 °C to develop the assay.
(§1) Inhibition was measured at increasing concentration and IC50 was calculated by nonlinear regression with Origin 9.0G software.

HDAC8 [2] = target: T1, HDAC8; design: made in house; method as in PMID 29190092, PMID 26937828; conditions: Table 2, previously published benzhydroxamate inhibitors; read-out: HDAC8 IC50; cited from earlier work
acetylated SMC3 = assay: Acetylation of HDAC8 substrate SMC3 in SK-N-BE(2)-C cells (Western blot); format: cell-based, human; conditions: 10 µM
Protocol: To test the degradation of HDAC8 with the developed PROTACs, we selected the most promising compounds obtained from the cellular neuroblastoma testing; namely CRBN_1b, CRBN_1d, CRBN_1e, HyT_1m, and HyT_1p. Whole cell lysates from treated SK-N-BE(2)-C neuroblastoma cells were taken and the protein levels for HDAC8 and the acetylation of its substrate SMC3 were determined (Figure 6). As a control for HDAC6, we also assessed acetylation levels of α-tubulin. […]. A clear dose-dependent degradation of HDAC8 by PROTAC CRBN_1e was observed (Figure 6C). After 48 h, the HDAC8 protein level was back to baseline, presumably due to de novo protein synthesis. […]. Western blot analysis was performed as described previously (Kolbinger et al.). […]
Figure 6 (A) SK-N-BE(2)-C neuroblastoma cells were treated for indicated time points with 10 µM of PROTACs. Degradation of HDAC8 and acetylation of HDAC8 target was analyzed via Western blot. […] Acetylation of HDAC8 target SMC3 and HDAC6 target tubulin, as well as total HDAC8 levels, were assessed by Western blot. Quantified ac-SMC3 or ac-tubulin expression, respectively, was normalized to the respective tubulin loading control and to the solvent control (DMSO). This quantification is reflected by the numbers below each blot. […] Total HDAC6, total HDAC1, total HDAC8, and acetyl-histone H4 expression levels, were assessed by Western blot. […]

HDAC8 [3] = target: T1, HDAC8; assay: HDAC8 degradation in SK-N-BE(2)-C neuroblastoma cells (Western blot); format: cell-based; design: endogenous in cells; host or cells: SK-N-BE(2)-C; conditions: SK-N-BE(2)-C cells, up to 10 µM, Western blot
Protocol: Whole cell lysates from treated SK-N-BE(2)-C neuroblastoma cells were taken and the protein levels for HDAC8 and the acetylation of its substrate SMC3 were determined (Figure 6). As a control for HDAC6, we also assessed acetylation levels of α-tubulin. […] Western blot analysis was performed as described previously (Kolbinger et al.).
Figure 6 (A) SK-N-BE(2)-C neuroblastoma cells were treated for indicated time points with 10 µM of PROTACs. Degradation of HDAC8 and acetylation of HDAC8 target was analyzed via Western blot. (B) SK-N-BE(2)-C neuroblastoma cells were treated for 6 h with indicated concentrations of HyT_1p, CRBN_1b and HyT_1m. Acetylation of HDAC8 target SMC3 and HDAC6 target tubulin, as well as total HDAC8 levels, were assessed by Western blot. Quantified ac-SMC3 or ac-tubulin expression, respectively, was normalized to the respective tubulin loading control and to the solvent control (DMSO). This quantification is reflected by the numbers below each blot. […] Total HDAC6, total HDAC1, total HDAC8, and acetyl-histone H4 expression levels, were assessed by Western blot. Total GAPDH protein levels served as a loading control (LC). * unspecific bands obtained through reprobing of the membrane.

HDAC6 = target: T2, HDAC6 (Homo sapiens, UniProt Q9UBN7); assay: In vitro HDAC inhibitory activity assay, recombinant HDAC6 (fluorogenic substrate ZMAL); format: biochemical; design: purchased BPS Biosciences; conditions: Table 1, PROTACs; read-out: HDAC6 IC50
T2 sequence (Q9UBN7 1-1215): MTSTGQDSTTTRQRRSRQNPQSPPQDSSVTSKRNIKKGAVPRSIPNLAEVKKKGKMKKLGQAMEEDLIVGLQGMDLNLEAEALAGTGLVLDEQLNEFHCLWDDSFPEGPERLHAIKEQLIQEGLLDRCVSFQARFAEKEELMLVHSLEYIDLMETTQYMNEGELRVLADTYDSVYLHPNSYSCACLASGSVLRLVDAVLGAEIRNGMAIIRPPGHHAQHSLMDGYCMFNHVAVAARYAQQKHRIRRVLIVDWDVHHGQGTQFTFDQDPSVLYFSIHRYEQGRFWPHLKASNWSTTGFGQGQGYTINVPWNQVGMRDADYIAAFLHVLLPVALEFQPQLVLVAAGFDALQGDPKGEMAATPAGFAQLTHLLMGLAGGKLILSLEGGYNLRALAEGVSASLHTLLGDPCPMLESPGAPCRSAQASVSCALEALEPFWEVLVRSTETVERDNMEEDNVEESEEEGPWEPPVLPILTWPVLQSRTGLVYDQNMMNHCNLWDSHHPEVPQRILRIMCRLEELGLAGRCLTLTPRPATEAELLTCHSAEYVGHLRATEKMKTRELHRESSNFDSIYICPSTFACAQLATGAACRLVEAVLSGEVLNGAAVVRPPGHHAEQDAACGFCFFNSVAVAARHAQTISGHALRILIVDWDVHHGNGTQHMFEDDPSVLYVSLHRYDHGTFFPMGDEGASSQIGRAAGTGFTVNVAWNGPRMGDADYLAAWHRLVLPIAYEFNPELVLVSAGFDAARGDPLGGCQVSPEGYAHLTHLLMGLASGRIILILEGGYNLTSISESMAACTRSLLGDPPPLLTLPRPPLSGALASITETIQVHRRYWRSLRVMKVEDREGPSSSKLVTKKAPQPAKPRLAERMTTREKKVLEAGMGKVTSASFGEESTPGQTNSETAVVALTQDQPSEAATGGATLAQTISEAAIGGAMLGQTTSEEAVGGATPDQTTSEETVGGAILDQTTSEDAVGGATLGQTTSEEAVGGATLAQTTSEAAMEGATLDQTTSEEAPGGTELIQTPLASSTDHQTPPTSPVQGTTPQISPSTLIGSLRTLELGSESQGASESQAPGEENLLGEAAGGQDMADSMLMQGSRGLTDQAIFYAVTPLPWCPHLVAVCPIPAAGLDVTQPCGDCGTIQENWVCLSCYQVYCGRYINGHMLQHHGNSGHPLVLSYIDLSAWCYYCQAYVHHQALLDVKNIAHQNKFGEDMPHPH
Protocol: (§2) The in vitro testing on recombinant HDACs was performed as previously described. Recombinant human HDAC1 and −6 were purchased from BPS Biosciences. The enzyme inhibition was determined by using a reported homogenous fluorescence assay. […] Fluorescence intensity was measured at an excitation wavelength of 390 nm and an emission wavelength of 460 nm in a microtiter plate reader (BMG Polarstar).
as §1

IMR-32 cells = assay: Cell viability / proliferation (trypan blue, viable cell count) in neuroblastoma cells; format: cell-based, human; conditions: 5 and 10 µM
Protocol: Moreover, we treated neuroblastoma IMR-32 cells with the remaining PROTACs and counted the resulting viable cells. We quantified the percentage of dead cells as shown in (Figure 5B,C). In addition, cell proliferation was assessed via counting of viable cells (Figure 5D,E). […] As reference, the HDAC8 inhibitor PCI-34501 was used.
Adherent cells were detached using trypsin–EDTA (ThermoFisher Scientific, Bremen, Germany) and pooled with corresponding supernatant, centrifuged, and resuspended in 1 mL of cell culture medium. Cell viability (viable cell number, % viability, % dead cells) was measured by automated trypan blue staining using the Vi-Cell XR Cell Viability Analyzer (Beckman Coulter, Krefeld, Germany).
Figure 5 (A) Neuroblastoma SK-N-BE(2)-C cells; Colony Assay, 10 days (compound treatment within first 96 h). Stained with crystal violet and quantified with ImageJ. (B,C) Trypan Blue assay for detection of dead cells. Neuroblastoma IMR-32 cells were either treated with 5 µM (B) or 10 µM (C). (D,E) Cell proliferation assessed via counting of viable cells. IMR-32 cells were either treated with 5 µM (D) or 10 µM (E) PROTACs. HDAC8i PCI-34501 served as a positive control, untreated (MEM) and solvent (DMSO) treated cells served as negative controls.

HDAC1 = HDAC1 (Homo sapiens, UniProt Q13547); assay: In vitro HDAC inhibitory activity assay, recombinant HDAC1 (fluorogenic substrate ZMAL); format: biochemical; design: purchased BPS Biosciences
Sequence of HDAC1 (Q13547 whole entry): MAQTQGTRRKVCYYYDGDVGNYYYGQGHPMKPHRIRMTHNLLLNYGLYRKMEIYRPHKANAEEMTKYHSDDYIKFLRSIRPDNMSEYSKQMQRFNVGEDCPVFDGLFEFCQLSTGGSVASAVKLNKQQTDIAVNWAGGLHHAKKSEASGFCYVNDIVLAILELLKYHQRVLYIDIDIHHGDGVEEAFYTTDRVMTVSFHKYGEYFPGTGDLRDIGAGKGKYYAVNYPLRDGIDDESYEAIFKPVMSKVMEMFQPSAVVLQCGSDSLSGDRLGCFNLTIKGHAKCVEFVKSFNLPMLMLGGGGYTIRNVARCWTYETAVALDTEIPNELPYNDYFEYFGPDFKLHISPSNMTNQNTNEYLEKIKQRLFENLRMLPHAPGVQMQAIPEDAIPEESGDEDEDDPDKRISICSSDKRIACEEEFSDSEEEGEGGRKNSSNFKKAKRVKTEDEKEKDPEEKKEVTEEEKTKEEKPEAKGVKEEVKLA
Protocol: as §2, §1

HDAC8 [4] = tested on: HDAC8; design: method as in PMID 35311871; conditions: Jurkat cells; cited from earlier work

Compound | SI (HDAC6/HDAC8) (HDAC8 [1]) | HDAC8 degradation (HDAC8 [3]) | IC50 (HDAC6) | IC50 (HDAC8 [1]; Table 1, PROTACs) | IC50 (HDAC8 [2]) | Effect in cell proliferation assay (viable cell count) (IMR-32 cells) | further results
O=C(NO)c1cccc(NCc2ccccc2)c1 [2d] | – | – | – | – | 140 ± 10 nM | – | –
COc1ccc(C(=O)NO)cc1NC(=O)c1ccc(NC(=O)CCCCCNC(=O)CC23CC4CC(CC(C4)C2)C3)cc1 [HyT_1m] | – | failed to degrade HDAC8 | 250 ± 80 nM | 570 ± 110 nM | – | less significant | inhibition at 1 µM (HDAC1; 1 µM, read-out: HDAC1 % inhib. at given conc.): 47.7%; inhibition at 10 µM (HDAC1; 10 µM, read-out: HDAC1 % inhib. at given conc.): 81.9%
COc1ccc(C(=O)NO)cc1NC(=O)c1ccc(NC(=O)CCCCCCC(=O)N[C@H](C(=O)N2C[C@H](O)C[C@H]2C(=O)NCc2ccc(-c3scnc3C)cc2)C(C)(C)C)cc1 [VHL_1k] | 3 | – | 310 ± 10 nM | 110 ± 10 nM | – | less significant | IC50 (HDAC1; Table 1, PROTACs, read-out: HDAC1 IC50): > 20000 nM
O=C1CCC(N2C(=O)c3cccc(NCCCCCCCCCCCNC(=O)c4cccc(SCc5cn(-c6cccc(C(=O)NO)c6)nn5)c4)c3C2=O)C(=O)N1 (stereo not drawn) [XIII] | – | – | – | – | – | – | HDAC8 degradation (HDAC8 [4]): efficient degradation of HDAC8 enzyme

Continued, in another order:

SI (HDAC6/HDAC8) (HDAC8 [1]) | HDAC8 degradation (HDAC8 [3]) | IC50 (HDAC6) | IC50 (HDAC8 [1]; Table 1, PROTACs) | Compound | IC50 (HDAC8 [2]) | Effect in cell proliferation assay (viable cell count) (IMR-32 cells) | further results
28 | – | – | – | COc1ccc(C(=O)NO)cc1NC(=O)c1ccccc1 [2b] | 90 ± 20 nM | – | –
– | no HDAC8 degradation | – | – | Cc1ccc(C(=O)NO)cc1NCc1ccc(OCc2cn(Cc3ccccc3)nn2)cc1 [33b] | – | – | IC50 (HDAC8 [1]; negative control without pomalidomide warhead): 698 ± 41 nM; Hyperacetylation of HDAC8 substrate SMC3 (acetylated SMC3): hyperacetylation of SMC3
